# ChEMBL document CHEMBL3217454, “Structureactivity relationship studies using peptide arrays: the example of HIV-1 Revintegrase interaction” (Medchemcomm, 2013)
# Square brackets hold non-standard residues; d marks the D form. Peptide text beside a SMILES is read from it. NMeT = CN[C@H](C(=O)O)[C@@H](C)O
# Experiments:
# [1] = biological target: Human immunodeficiency virus type 1 integrase (Human immunodeficiency virus 1) (UniProt Q7ZJM1); assay: Binding affinity to HIV-1 integrase measured after overnight incubation by chemiluminescence analysis relative to IN 118-128; set-up: concentration or dose not given beside the values
# [2] = test system: Human immunodeficiency virus 1; assay: Binding affinity to HLT-tagged HIV-1 Rev measured after overnight incubation by chemiluminescence analysis relative to IN 118-128; set-up: concentration or dose not given beside the values
# Human immunodeficiency virus type 1 integrase (Human immunodeficiency virus 1), sequence (Q7ZJM1 as listed by the source): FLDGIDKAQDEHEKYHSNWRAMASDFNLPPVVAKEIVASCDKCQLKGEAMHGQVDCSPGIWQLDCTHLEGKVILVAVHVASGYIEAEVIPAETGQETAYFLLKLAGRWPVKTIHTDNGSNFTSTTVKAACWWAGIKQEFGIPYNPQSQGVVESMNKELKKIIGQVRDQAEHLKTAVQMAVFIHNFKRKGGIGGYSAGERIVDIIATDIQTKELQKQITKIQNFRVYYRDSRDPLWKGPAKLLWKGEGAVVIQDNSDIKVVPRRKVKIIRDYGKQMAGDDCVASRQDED
compound,measurement,setting,value
CC(C)[C@H](NC(=O)[C@@H](NC(=O)[C@@H](NC(=O)[C@H](CO)NC(=O)[C@@H](NC(=O)[C@H](Cc1ccccc1)NC(=O)[C@H](CC(N)=O)NC(=O)[C@@H](N)CO)[C@@H](C)O)[C@@H](C)O)[C@@H](C)O)C(=O)N[C@@H](CCCCN)C(=O)N[C@@H](C)C(=O)O (H-SNFTSTTVKA-OH),Activity,[1],207%
same,Activity,[2],177%
CC(C)[C@H](NC(=O)[C@@H](NC(=O)[C@@H](NC(=O)[C@H](CO)NC(=O)[C@@H](NC(=O)[C@H](Cc1ccccc1)NC(=O)[C@H](CC(N)=O)NC(=O)[C@H](C)NC(=O)CN)[C@@H](C)O)[C@@H](C)O)[C@@H](C)O)C(=O)N[C@@H](CCCCN)C(=O)N[C@@H](C)C(=O)O (H-GANFTSTTVKA-OH),Activity,[1],177%
same,Activity,[2],146%
C[C@@H](O)[C@H](NC(=O)[C@H](Cc1ccccc1)NC(=O)[C@H](CC(N)=O)NC(=O)[C@H](CO)NC(=O)CN)C(=O)N[C@@H](CO)C(=O)O (H-GSNFTS-OH),Activity,[1],0%
same,Activity,[2],0%
CC(C)[C@H](NC(=O)[C@@H](NC(=O)[C@@H](NC(=O)[C@@H](N)CO)[C@@H](C)O)[C@@H](C)O)C(=O)N[C@@H](CCCCN)C(=O)N[C@@H](C)C(=O)O (H-STTVKA-OH),Activity,[1],144%
same,Activity,[2],187%
CC(C)[C@H](NC(=O)[C@@H](NC(=O)[C@@H](NC(=O)[C@H](CO)NC(=O)[C@H](NC(=O)[C@H](Cc1ccccc1)NC(=O)[C@H](CC(N)=O)NC(=O)[C@H](CO)NC(=O)CN)[C@@H](C)O)[C@@H](C)O)[C@@H](C)O)C(=O)N[C@@H](CCCCN)C(=O)N[C@@H](C)C(=O)O,Activity,[1],58%
same,Activity,[2],52%
CC(C)[C@H](NC(=O)[C@H]([C@@H](C)O)N(C)C(=O)[C@@H](NC(=O)[C@H](CO)NC(=O)[C@@H](NC(=O)[C@H](Cc1ccccc1)NC(=O)[C@H](CC(N)=O)NC(=O)[C@H](CO)NC(=O)CN)[C@@H](C)O)[C@@H](C)O)C(=O)N[C@@H](CCCCN)C(=O)N[C@@H](C)C(=O)O (H-GSNFTST[NMeT]VKA-OH),Activity,[1],265%
same,Activity,[2],168%
